Test results: patent US9150608B2, “Neuro-protective compounds and their use” (Biotechnology Research Corp. Ltd., priority 2010, dated 2015)

Experiments:
[1] = tested on: rat cortical neurons cultured in the absence of B27; assay: Cortical neuron survival assay with B27 withdrawal (MTT); format: cell-based; conditions: for cell survival of cortical neurons in the absence of B27 (MTT): 30 μM, pre-treated 24 hours (FIG. 15); for concentration showing neuroprotective effect in the absence of B27 (MTT): primary cortical neurons 7DIV, dose-dependent study 1-30 μM
Experimental: FIG. 2. Adelostemma gracillimum refined fraction promotes rat cortical neuron survival against B27 withdrawal. Cortical neurons isolated from embryonic day 18 rats were cultured in Neurobasal medium supplemented with 2 % B27. […] A MTT assay was performed 24 hours later. Cell survival is presented as a percentage compared to a DMSO control in the presence of B27 (“CTL with B27”). Assays were conducted in triplicate and repeated at least twice. *=P<0.05.
Primary cortical neurons were cultured in Neurobasal medium and supplemented with B27, a proprietary formula of Life Technologies. The combination of Neurobasal medium and B27 provides a stable growth environment for primary neurons to maturity in vitro. Neurons undergo apoptosis or cell death in the absence of B27. To study the neuroprotective effect of Adelostemma gracillimum refined fraction, neurons of 7DIV were treated with AG-0 and cell survival was measured as mitochondrial activity by the MTT assay.
The cells were then washed with Hanks' solution twice and replaced with test samples that were serial diluted in Neurobasal medium. A tetrazole, 3-(4,5-Dimethylthiazol-2-yl)-2,5-diphenyltetrazolium bromide (MTT, 5 mg/ml) was added to the medium at a ratio of 1:10 after a 2-day incubation. MTT is reduced by living cells into purple formazan and further solubilized in 20% SDS solution; therefore, the colored solution was measured by spectrophotometer and cell viability was quantified.

[2] = tested on: phosphorylated ERK, CREB, Akt, P38, MEK in cortical neurons; assay: Western blot detection of signaling proteins in cortical neurons; format: cell-based, rat; conditions: cortical neurons 7DIV
[3] = tested on: cortical neurons in the absence of B27; assay: Immunocytochemical analysis of neurons after B27 withdrawal; format: cell-based, rat; conditions: 30 μM, pre-treated 24 hours
Experimental: FIG. 10. Immunofluorescence staining of cortical neurons pretreated with Adelostemma gracillimum refined fraction or fraction AG-3 in the absence of B27. […] Cortical neuronal cultures of 7DIV were pre-treated with AG-0 (30 μg/mL), AG-3 (30 μg/mL), or BDNF (50 ng/mL) for 24 hours, then the medium was changed to one lacking B27. Cultures were fixed with 4% paraformaldehyde, immunostained with beta-tubulin type III antibody, and visualized with FITC-conjugated anti-mouse antibody. Cell bodies were highlighted by DAPI staining. DMSO was used as a solvent control. Images are shown at 40× magnification.
FIG. 21. Immunofluorescence staining of GAG-C27-treated cortical neurons in the absence of B27. Cortical neuronal cultures of 7DIV were pre-treated with AG-0 (30 μg/mL), GAG-C27 (30 μM), or BDNF (50 ng/mL) for 24 hours, after which the medium was changed to one lacking B27. Cultures were fixed with 4% paraformaldehyde, immunostained with beta-tubulin type III antibody, and visualized with FITC-conjugated anti-mouse antibody. Cell bodies were highlighted by DAPI staining. DMSO was used as a solvent control. […]
Cortical neurons were plated on 35-mm dishes (NUNC) at a density of 1×10^6 cells per plate using Neurobasal medium (Invitrogen) supplemented with 2% B27 (Invitrogen). […] Cell morphology was then analyzed using a fluorescence microscope with a 40× objective (DMRA; Leica). […]

hippocampal neurons = assay: Quantification of spine (dendritic spine morphology); format: cell-based, rat; conditions: hippocampal neurons 14DIV, 10 μM, 24 hr, vs DMSO
Experimental: FIG. 38. GAG-C14 modulates spine morphogenesis. Hippocampal neurons were transfected with enhanced green fluorescent protein (EGFP) construct at 7DIV by calcium phosphate precipitation. The GFP-expressing neurons at 14DIV were then treated with 10 μM GAG-C14 or DMSO vehicle control for 24 hr. The dendritic spine morphology of hippocampal neurons was examined by confocal microscopy.
Cultured hippocampal neurons were seeded on 18 mm coverslips coated with poly-D-lysine in 12-well-plates (Falcon). The neurons were then grown in Neurobasal medium (Invitrogen) supplemented with 2% B27 (Invitrogen) and 0.5 mM glutamine. To visualize the morphology of dendritic spines, the neurons were transfected with GFP DNA construct between 7-9 DIV by using calcium phosphate precipitation. To examine the development of dendritic spines, the neurons were treated with the test compound on 14 DIV. The neurons were then fixed with 4% paraformaldehyde and morphology was examined using confocal microscopy. To quantify spine density in cultured hippocampal neurons, a stack of images (z step, 0.5 μm) was collected using a 60× objective. Images were merged and analyzed using MetaMorph software (Universal Imaging Corp). Dendritic spines, defined as protrusions at least 0.5 μm from the dendritic surface, were scored and expressed as per μm length of dendrite. Three dendrites from each neuron was randomly selected and quantified in a double-blinded manner. For each experimental condition, twenty to thirty neurons were analyzed from 3 independent experiments. Data was presented as mean±SEM.

[4] = tested on: cyclic AMP response (CRE) element; assay: CRE-dependent transcription assay (luciferase); format: cell-based, rat; conditions: hippocampal neurons 12DIV, 50 μM, 6 hours
Experimental: FIG. 41. GAG compounds enhance CRE-dependent transcription activity. GAG-C14 (a), GAG-C53 (b), GAG-C63 (c), GAG-C69 (d), GAG-C84 (e), GAG-C111 (f), GAG-C122 (g), GAG-C123 (h), and GAG-C129 (i) induce CRE-dependent transcriptional activity in cultured hippocampal neurons. On the day of cell seeding, hippocampal neurons were transfected with a firefly luciferase reporter plasmid containing cyclic AMP response (CRE)-element. The cells at 12 DIV were then treated with 50 μM of AG compounds for 6 hours. Data are mean±SEM (n=3-4), *=P<0.05, **=P<0.01, and ***=P<0.005 versus vehicle-treated cells (0 μM), student's t test.
Cultured hippocampal neurons were transfected with a firefly luciferase reporter plasmid containing a cyclic AMP response (CRE) element. At 12DIV, the cells were treated with 50 μM of compound for 6 hours, then CRE-dependent transcription activity was assayed by measuring luciferase levels.
Freshly isolated embryonic cortical neurons were transfected with a luciferase reporter gene (Cre-Luc) linked to CREB activation following the ACM lipofectamine method using Lipofectamine 2000, a cationic liposome based reagent (Invitrogen). […] Transfection was performed using 1 μL Lipofectamine 2000 and 0.4 μg DNA per well. Neurons were then treated with test samples for time periods of 6 hours. After treatment, the cells were washed with ice-cold DPBS and 100 μL of 1× luciferase lysis buffer (Promega) was added. The plates were placed in −20° C. to freeze the cells, after which they were thawed to facilitate lysis. The lysates were transferred onto white bottom plates and assayed for renilla luciferase using the luciferase assay kit (Promega). Increased CREB activation in the neurons leads to an enhanced luciferase production and this was quantified using a Promega GloMax™ 96 microplate luminometer. […] BDNF and rolipram were used as positive controls.

CREB promoter = CREB promoter assay (luciferase) in cortical neurons; format: cell-based, rat; conditions: cortical neurons 7DIV, 6 hours incubation
Experimental: FIG. 26. GAG-C77 increases CREB-promoter activity in primary cortical neurons. Primary cortical neuronal cultures (7DIV) transfected with a luciferase-CREB promoter construct were treated with GAG-C69 or GAG-C77 (concentration depicted in [μM]). Cell lysates were collected after 6 hours incubation and luciferase activity was measured. BDNF [ng/mL] and rolipram [μM] were used as positive controls. Assays were conducted in triplicate. *=P<0.05; **=P<0.005.
Freshly isolated embryonic cortical neurons were transfected with a luciferase reporter gene (Cre-Luc) linked to CREB activation following the ACM lipofectamine method using Lipofectamine 2000, a cationic liposome based reagent (Invitrogen). […] Transfection was performed using 1 μL Lipofectamine 2000 and 0.4 μg DNA per well. Neurons were then treated with test samples for time periods of 6 hours. After treatment, the cells were washed with ice-cold DPBS and 100 μL of 1× luciferase lysis buffer (Promega) was added. The plates were placed in −20° C. to freeze the cells, after which they were thawed to facilitate lysis. The lysates were transferred onto white bottom plates and assayed for renilla luciferase using the luciferase assay kit (Promega). Increased CREB activation in the neurons leads to an enhanced luciferase production and this was quantified using a Promega GloMax™ 96 microplate luminometer. […]

CRE-dependent transcription activity (luciferase) [4]	luciferase activity driven by the CREB promoter (CREB promoter)	Molecule	cell survival of cortical neurons in the absence of B27 (MTT) [1]	concentration showing neuroprotective effect in the absence of B27 (MTT) [1]	AKT protein phosphorylation ([2]; 10 μM)	ERK phosphorylation time course ([2]; 10 μM)	phosphorylated P38 ([2]; 10 μM, after 30 min of incubation)	protection from cell death after B27 withdrawal (immunofluorescence staining) [3]	frequency / percentage of filopodia (hippocampal neurons)	percentage of large spines (head>1 μm) (hippocampal neurons)	spine density (hippocampal neurons)	ERK phosphorylation time course ([2]; 30 μM)	CREB phosphorylation ([2]; 30 μM, 15 min of incubation)
–	–	3-O-β-D-Cymaropyranose-(1→4)-β-D-Digitoxopyranose-12-cis-cinnamyl-20-acetyl-8,14-seco-sacrostin [GAG-C27]	promoted cell survival	30 µM	no effect	induced ERK phosphorylation in cortical neurons after 15 min, which was sustained for 60 min	reduction	protected cortical neurons from cell death	–	–	–	–	–
enhances CRE-dependent transcription	–	CCCCCCCCCCCCCCCC(=O)OCC(O)CO (centres unmarked) [GAG-C14, 2,3-dihydroxypropyl palmitate]	–	–	no observable effect	induced ERK phosphorylation in cortical neurons after 15 min and the effect remained for 90 min	–	–	reduction in the frequency of filopodia	significantly increased	increase in spine density	–	–
–	significantly induce luciferase activity	COc1cc(C2Oc3c(OC)cc(C=O)cc3C2C)ccc1O (centres unmarked) [GAG-C77, 4-hydroxyl-3,3′-dimethyoxyl-4″,7-epoxy-8,5′-oxyneoligna-7′-al]	promoted cell survival	10 to 30 µM	–	–	–	–	–	–	–	significantly induced ERK phosphorylation in cortical neurons from 15 min and persistently to 180 min	induced CREB phosphorylation
